Measured values taken from PubChem BioAssay AID540258 (Broad Institute, 2011).
Calls of active or inactive are those of the source.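 How the source made its calls: active means fitted curve reaching 40% activation at or below the top valid dose tested; inconclusive means flat curve at 30 to 70% activation, or poor fit; inactive means the rest.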

tested on: SK-MEL-5 TRPM1 promoter luciferase reporter, 24 h; assay: MITF activators via TRPM1 promoter reporter, dose response, SK-MEL-5 cells, luciferase, cherry-pick samples (AID 540258);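 further: potency for activators that raise TRPM1 promoter luciferase signal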

SMILES	AC40
C/C(=N\OC(=O)Nc1ccccc1)c1ccc(C)cc1	3450 nM
COc1ccc(C(=O)NCCn2ccc3ccccc32)cc1	1660 nM
CC(=O)c1sc(N/N=C/c2cccc(O)c2)nc1C	2670 nM
COc1ccc(COc2ccc3ccc(=O)oc3c2)cc1	1210 nM
COC(=O)Cc1csc(Nc2ccccc2Cl)n1	6300 nM
CCCc1cc(C(=O)Nc2cc(Cl)ccc2O)no1	2990 nM
CCCCC(=O)Nc1sc2c(c1C#N)CC(C)(C)OC2	5290 nM
CCn1c(C(=O)OC)cc2c1ccn2-c1ccc(F)cc1	2940 nM
Cc1nc(C(C)NC(=O)CCc2nnc(CCCc3ccccc3)o2)c(C)s1 (configuration not stated)	3830 nM
COc1ccc(NC(=O)Nc2ccc(Br)cn2)cc1	3150 nM
O=C(Nc1ccc(O)cc1)c1c(O)c2c([nH]c1=O)CCCC2	664 nM
Cc1ccc(-c2cn(-c3ccccc3)c(=S)[nH]2)cc1C	997 nM
C=CCNc1nc(-c2ccc(Cl)cc2)cs1	639 nM
Oc1[nH]c2ccccc2c1C=Nc1ccccc1	5550 nM
O=C(Nc1ccc(Br)cc1F)c1ccc2nsnc2c1	1310 nM
CC(=O)c1cnc2nc(SCc3ccccc3)nn2c1C	2290 nM
Oc1ccc(-c2nccc(-c3ccccn3)n2)cc1	4350 nM
C#CCSc1nnc(-c2ccc(O)cc2)o1	9520 nM
c1ccc2c(Nc3nnc(-c4ccncc4)s3)cccc2c1	4900 nM
CC/C(=N\NC(=O)c1csc(C)c1C)c1cccs1	733 nM
O=C1c2ccccc2C(=O)N1CCc1c[nH]c2ccccc12	2190 nM
N#C/C(=N\Nc1ccccc1F)C(=N)N1CCCCC1	2130 nM

SMILES	AC40
Cc1ccsc1/C=N/NC(=O)Nc1ccccc1	1070 nM
O=C(CC(Nc1ccccc1)C(=O)O)c1ccccc1 (configuration not stated)	749 nM
CC(C)C(=O)Nc1cccc(-c2cnc3ccccc3n2)c1	17300 nM
Cc1ccc(CNc2ccc3c(c2)ncn3C(C)C)cc1	2630 nM
COc1ccc2cc(C(=O)NCCc3ccccc3)[nH]c2c1	11600 nM
Nc1ccc(CSc2ccc(Cl)cc2)c(Cl)c1	1980 nM
C=CCn1cnc2c(nnn2-c2ccc(C)c(C)c2)c1=O	11900 nM
COc1cccc(-c2cc(C(=O)Nc3ccccc3SC)no2)c1	> 35000 nM (inactive)
O=C(NCc1ccccn1)Nc1ccc(Br)cc1Cl	14300 nM
O=C(NCCc1ccc(O)cc1)c1ccc(Cl)cc1	2880 nM
COC(=O)Cn1c(C)nc2c(sc3nc(C)cc(C)c32)c1=O	2340 nM
Cc1ccc(O)c(-n2nc3ccccc3n2)c1	1210 nM
Cc1cc2c([nH]c3ccccc32)c2c1OC(C)(C)C=C2	3800 nM
Cc1ccc(CNc2nc(C)cs2)cc1	1050 nM
Clc1ccc(-c2cnnc(-c3ccccn3)n2)cc1	1710 nM
CC(=O)N1N=C(c2ccc(C)cc2)OC1c1ccc(Br)cc1 (configuration not stated)	2830 nM
COCc1ccc(-c2c(-c3ccc(OC)cc3)oc(=O)c3cc(OC)c(OC)cc23)cc1	3050 nM
C/C(Cl)=C/CSc1nn2c(=O)c3ccccc3nc2s1	13000 nM
N#Cc1ccsc1NC(=O)CCc1ccccc1	9770 nM
COC(=O)c1c(C)[nH]c(/C=N/Nc2ccccc2)c1C	> 35000 nM (inactive)
COc1ccc(C2Nc3ccccc3C(=O)N2c2ccc(C)cc2)cc1Cn1nnc2ccccc21 (configuration not stated)	17200 nM
O=C1CCCc2nc3c(cc21)C(O)Oc1c-3ccc2ccccc12 (configuration not stated)	1520 nM

SMILES	AC40
COc1ccc(C(=S)Nc2ccc(C)cc2)cc1	2650 nM
COc1ccc(NC(C)=O)cc1S(=O)(=O)Nc1ccccc1C(=O)NCCc1ccccc1	> 35000 nM (inactive)
Cc1ccc(N(O)C(=O)NCCCCNC(=O)N(O)c2ccc(C)cc2)cc1	15500 nM
FC(F)Oc1ccc(N=C2SCC3CCCCN23)cc1 (configuration not stated)	2530 nM
O=C(N/C=C/c1ccccc1)c1ccccc1	551 nM
COc1ccccc1OCc1cc(-c2ccccc2)no1	2280 nM
Oc1ccc(/C=N/Nc2cccc(Cl)n2)c(O)c1	584 nM
Cc1ccc(OC(=O)c2cccc(S(=O)(=O)N3CCCC3)c2)c(-n2nc3ccccc3n2)c1	1410 nM
O=C(Nc1ccc(Cl)c(Cl)c1)OCc1cccnc1	7440 nM
CN1C(=O)NC(=O)C(C)(C2=CCCCC2)C1=O (configuration not stated)	> 35000 nM (inactive)
CN1CCSc2ccc(C(=O)Nc3cc(F)ccc3F)cc21	465 nM
COc1ccccc1N1CCN(/N=C/c2cccc(Cl)c2)CC1	1450 nM
Cc1ccc(OCc2cc(C(=O)N3CC4C[C@@H]5CC3C[C@H](C4)C5)no2)cc1C	2610 nM
O=C(Cc1ccccn1)c1ccc(Cl)cc1	1980 nM
COc1cc(CNCc2ccccn2)ccc1OCc1ccc(Cl)c(Cl)c1	9740 nM
FC(F)(F)c1ccnc(Oc2ccc(C3=NCCS3)cc2)c1	654 nM
O=C(NOCc1ccccc1)OCc1ccccc1	6910 nM
CC1(C)CN=c2s/c(=C\c3ccc(Cl)cc3)c(=O)n2C1	1210 nM
CN(/N=C/c1ccc2c(c1)OCO2)c1ccccc1	1340 nM
CC1CCc2nc(NC(=O)Cc3cccs3)sc2C1 (configuration not stated)	2630 nM
CCC(C)NC(=O)c1cn(-c2cccc(C)n2)cn1 (configuration not stated)	10600 nM
c1csc(CSc2nc3ccccc3s2)c1	1090 nM

SMILES	AC40
CCn1c(C(=O)NC2CCC(C)CC2)cc2sccc21 (configuration not stated)	8360 nM
c1ccc(-n2ncc3c(NCc4cccs4)ncnc32)cc1	2660 nM
Cc1nc2ccccc2nc(=O)c1NNc1ccccc1	3990 nM
Cc1ccc(NC(=O)Nc2ccc3oc(C)nc3c2)cc1	1390 nM
CC(C)Nc1cc(C(C)(C)C)nc2c(-c3ccccc3)cnn12	8530 nM
Clc1ccc(COn2nnc3ccccc32)c(Cl)c1	941 nM
COc1ccc(NC(=O)CN(C)C(=O)CNC(=O)c2sc3ccccc3c2Cl)cc1	7780 nM
c1ccc(-c2ccc3sccc3n2)cc1	1520 nM
Brc1ccc(/C=N/Nc2ccccc2)cc1	15400 nM
CC(C)c1ccc2nc(N)sc2c1	> 35000 nM (inactive)
CCc1ccc(OC(=O)Nc2ccccc2)cc1	469 nM
COc1ccc(-n2nc(C(=O)NCC(=O)N3CCN(c4ccccc4)CC3)c3ccccc3c2=O)c(OC)c1	4770 nM
COc1cccc(N(C(=O)c2nc3nccc(C)n3n2)c2nc3ccccc3s2)c1	495 nM
Cc1cccc(NC(=O)c2sc3nc(N)c(C#N)cc3c2N)c1	2610 nM
COc1cccc(C2Nc3ccccc3C(=O)N2c2ccc(F)cc2)c1O (configuration not stated)	23800 nM
COc1ccc(-c2cn3cccc(C)c3n2)cc1F	565 nM
O=C(Cc1cccs1)NCc1ccc(Cl)cc1Cl	5590 nM
COc1cc2sc3cc(NCC[C@@H]4CCCN4C)ccc3c(=O)c2cc1OC	5180 nM
CC(=O)c1ccc2oc3ccccc3c(=O)c2c1	10100 nM
CCc1ccc(O)c(-c2cc(C(=O)Nc3cccnc3)[nH]n2)c1	2440 nM
Cc1ccc(NC(=O)CCCc2ccccc2)nc1	5720 nM
Clc1ccccc1OCc1nnc(-c2ccccc2Br)o1	2430 nM

SMILES	AC40
Cn1c(SCc2ccccc2Cl)nc2ccccc21	794 nM
CC(C)(C)c1ccc(SCCc2ccccn2)cc1	1980 nM
COc1ccc(-c2nnc(-c3ccc4ccccc4c3)o2)cc1	4300 nM
CCc1ccc(NC(=O)c2n[nH]c(=O)c3ccccc23)cc1	1100 nM
Nc1ccc2cc3ccccc3cc2c1	2880 nM
CCCCc1ccc(Nc2ncnc3nc[nH]c23)cc1	3370 nM
Cc1ccc(O)c(C2=Nc3ccccc3C2(C)C)c1	8510 nM
CC(C)c1ccc(NC(=O)c2snc3ccc(Cl)cc23)cc1	1110 nM
O=C(O)c1cc(-c2ccc(-c3c(-c4ccc5c(c4)OCO5)noc3-c3ccsc3)cc2)nc2ccccc12	20300 nM
Fc1ccc2nc(N3CCCC3)sc2c1	1370 nM
CCN(CC)c1ccc(-c2nc3cnccc3n2C)cc1	1640 nM
COc1cccc(Nc2ccc(N3CCCCC3)cc2)c1OC	1480 nM
COc1cc(/C=C/c2nc3ccccc3c(=O)[nH]2)ccc1OC(F)F	980 nM
COc1ccc2sc(NCc3ccccc3)nc2c1	1980 nM
Nc1ccc2oc(-c3cccs3)nc2c1	4760 nM
CC(=O)c1sc(NC(=O)c2ccccc2F)nc1-c1ccccc1	3020 nM
Cc1csc2nc(CSc3nc4ccccc4o3)c(Br)n12	1350 nM
CCN(CC)c1ccc(Nc2nc(-c3cccnc3)cs2)cc1	2640 nM
Cc1ccc(-c2cc(-c3ccc(C)cc3O)[nH]n2)cc1	342 nM
CCc1c(C(=O)Nc2ccc(C)c(C)c2)[nH]c(C)c1C(C)=O	5170 nM
CC(=O)c1cnc2c(-c3cccc(Br)c3)cnn2c1C	13200 nM
Cc1nc(-c2noc(-c3ccccc3Cl)n2)c(C(F)(F)F)o1	11900 nM

SMILES	AC40
Cc1cc2ncc(-c3ccc(Cl)cc3)c(N)n2n1	> 35000 nM (inactive)
CCCc1ccc(C(=O)NNc2ccccc2F)cc1	8640 nM
CC(C)(C)C(=O)c1cnc(Nc2ccccc2Cl)s1	832 nM
Cc1ccc(N2NC(C)(c3cccs3)NC2=S)cc1 (configuration not stated)	1420 nM
CC(C)C[C@@H](CSc1ccccc1)N1CCN(CC(C)C)CCC1=O	4580 nM
ClCCn1cnc2c(SCc3ccccc3)ncnc21	3640 nM
c1ccc2c(c1)CC/C2=N/Nc1nc2ccccc2[nH]1	860 nM
[O-]/[N+](=C\C=C\c1ccccc1)c1ccccc1	1680 nM
COc1ccc(Oc2nnc(C)c3ccccc23)cc1	2600 nM
Cc1ccc(NC(=O)CC(=O)c2ccccc2)cc1C	3330 nM
O=S(=O)(c1ccccc1)n1ccc(-c2cnc(-c3ccccc3)s2)n1	7870 nM
O=C(Nc1ccc2c(c1)CCC2)c1c(F)cccc1Cl	1840 nM
COC(=O)c1ccc(CSC2=NCCS2)cc1	3380 nM
CC1(C)CC(/C=C/c2ccccc2)=Nc2ccccc2N1	20900 nM
COc1ccc2ccccc2c1/C=N/Nc1cccc(C(=O)O)c1	13100 nM
COc1ccc(N2C(=O)c3ccccc3NC23CCCCC3)cc1	1620 nM
c1csc(-c2nc(N3CCCCC3)no2)c1	1440 nM
O=C(N/N=C/c1ccccn1)c1c[nH]c2ccccc12	6490 nM
Cn1c(NC(=O)CCC2CCCCC2)cc(=O)n(C)c1=O	1490 nM
CC1(C)CC(=O)c2c(O)cc(OCc3ccc(Br)cc3)cc2O1	1340 nM
O=C(Nc1ccc2c(c1)OCO2)c1cc(-c2ccccc2Cl)on1	2060 nM
CC(=O)c1ccc2c(c1)Cc1cc(C(C)=O)ccc1-2	1190 nM
